Measured values reported in patent publication EP0802730B1, “PESTICIDAL COMPOUNDS” (BTG INTERNATIONAL LIMITED, priority 1995, dated 1996).
In brackets after ≈: the same amount, converted by molar mass.

What follows are compounds tested on Houseflies (MD) (Musca domestica) (assay: not given). Details: Tables 10, 13, 14; NA = lack of detectable activity.
Format: in vivo
Description: Female flies were treated on the thorax with a one microlitre drop of test compound dissolved in acetone. Two replicates of 15 flies were used at each dose rate and 6 dose rates were used per compound under test. After treatment, the flies were maintained at a temperature of 20° ± 1°C and kill was assessed 24 and 48 hours after treatment. LD50 values were calculated in micrograms of test compound per fly (see Sawicki et al., Bulletin of the World Health Organisation, 35, 893 (1966) and Sawicki et al., Entomologia and Exp. Appli 10, 253, (1967).

Structure (SMILES) | MD LD50 (µg/insect)
CCCCC1=C(O)C(=O)c2ccccc2C1=O [-(CH2)3CH3, reference compound] | c10 µg/insect
CCCCCCCCC1=C(O)C(=O)c2ccccc2C1=O [-(CH2)7CH3, reference compound] | 1.9 µg/insect
CCC1(C2=C(O)C(=O)c3ccccc3C2=O)CCCCC1 [Example 26, 2-(1'-ethylcyclohexyl)-3-hydroxy-naphthalene-1,4-dione] | 13 µg/insect
C=CC1(C2=C(O)C(=O)c3ccccc3C2=O)CCCCC1 [Example 27, 2-(1'-ethenecyclohexyl)-3-hydroxy-naphthalene-1,4-dione] | 6.0 µg/insect
O=C1C(O)=C(C2(C(F)(F)F)CCCCC2)C(=O)c2ccccc21 [Example 28, 2-hydroxy-3-(1'-trifluoromethylcyclohexyl)-naphthalene-1,4-dione] | 14 µg/insect
C=CC1(C2=C(O)C(=O)c3ccccc3C2=O)CCCC1 [Example 30] | 15 µg/insect
CC(C)(C)CC1=C(O)C(=O)c2ccccc2C1=O [Example 35, 2-(2,2-dimethylpropyl)-3-hydroxy-naphthalene-1,4-dione] | 1.2 µg/insect

Same assay, conditions: house fly, in vivo

Structure (SMILES) | MD (LD50)
CC(C)(C)C1CCC(C2=C(O)C(=O)c3ccccc3C2=O)CC1 (stereo not shown) [Compound B, 2-hydroxy-3-(4-t-butylcyclohexyl)-naphthalene-1,4-dione, reference compound] | 15.5

Same assay, conditions: topical 1 µl drop in acetone on female flies; kill assessed 24 and 48 hours

Structure (SMILES) | MD (LD50)
C=CC(C)(C)C1=C(OC(=O)CC)C(=O)c2ccccc2C1=O [Example 4] | 8.2 µg/insect
C=CC(C)(C)C1=C(OC(=O)CCCC)C(=O)c2ccccc2C1=O [Example 6] | c. 2.0 µg/insect
C=CC(C)(C)C1=C(OC(=O)CCCCC)C(=O)c2ccccc2C1=O [Example 7] | > 20 µg/insect
C=CC(C)(C)C1=C(OC(=O)C(C)C)C(=O)c2ccccc2C1=O [Example 10] | > 20 µg/insect
C=CC(C)(C)C1=C(OC)C(=O)c2ccccc2C1=O [Example 12, 2-(1,1-dimethylprop-2-enyl)-3-methoxy-naphthalene-1,4-dione] | > 20 µg/insect
C=CC(C)(C)C1=C(O)C(OC)(OC)c2ccccc2C1=O [Example 14, 1,1-dimethoxy-2-hydroxy-3-(1,1-dimethylprop-2-enyl)-naphthalene-4-one] | c. 2.5 µg/insect
CCCC(C)(C)C1=C(O)C(=O)c2ccccc2C1=O [Example 16] | 8.8 µg/insect
CCCC(C)(C)C1=C(OC(=O)CC)C(=O)c2ccccc2C1=O [Example 17] | 14 µg/insect

These compounds were tested on Mites (TU) (Tetranychus urticae), susceptible strain (GSS) (assay: Mite immersion test, susceptible strain GSS). Details: 72 h, Tables 10, 13, 14, susceptible strain, NA = lack of detectable activity, read-out: TU LC50 (ppm/insect).
Format: in vivo
Description: 25 adult female mites were immersed in 35 µl of a solution of the test compound in a 1:4 acetone-water mixture for 30 seconds. The treated insects were maintained at 21° ± 2°C and kill was assessed 72 hours after treatment. […] Three replicates of 25 mites each were used at each dose rate and 5 or 6 dose rates were used per compound under test. LC50 values were calculated in ppm of the solution of the test compound per insect. The test was carried out using a susceptible strain of mites (GSS) supplied by Schering, AG, Berlin.

Structure (SMILES) | LC50 [µg/mL]
CCCCC1=C(O)C(=O)c2ccccc2C1=O [-(CH2)3CH3, reference compound] | 65 (≈ 282 µM)
CCCCCCCCC1=C(O)C(=O)c2ccccc2C1=O [-(CH2)7CH3, reference compound] | ~1000 (≈ 3490 µM)
CCC1(C2=C(O)C(=O)c3ccccc3C2=O)CCCCC1 [Example 26, 2-(1'-ethylcyclohexyl)-3-hydroxy-naphthalene-1,4-dione] | > 100
C=CC1(C2=C(O)C(=O)c3ccccc3C2=O)CCCCC1 [Example 27, 2-(1'-ethenecyclohexyl)-3-hydroxy-naphthalene-1,4-dione] | ~80 (≈ 283 µM)
O=C1C(O)=C(C2(C(F)(F)F)CCCCC2)C(=O)c2ccccc21 [Example 28, 2-hydroxy-3-(1'-trifluoromethylcyclohexyl)-naphthalene-1,4-dione] | 40 (≈ 123 µM)
C=CC1(C2=C(O)C(=O)c3ccccc3C2=O)CCCC1 [Example 30] | 6 (≈ 22.4 µM)

Same assay, conditions: 72 h, text b201, no unit printed there, read-out: TU (GSS) LC50

Structure (SMILES) | LC50 [µg/mL]
CC(C)(C)C1CCC(C2=C(O)C(=O)c3ccccc3C2=O)CC1 (stereo not shown) [Compound B, 2-hydroxy-3-(4-t-butylcyclohexyl)-naphthalene-1,4-dione, reference compound] | 44 (≈ 141 µM)

Same assay, conditions: ppm solution of test compound, 30 seconds immersion, kill at 72 hours, read-out: TU(GSS) (LC50)

Structure (SMILES) | LC50 [µg/mL]
C=CC(C)(C)C1=C(OC(=O)CC)C(=O)c2ccccc2C1=O [Example 4] | 18 (≈ 60.3 µM)
C=CC(C)(C)C1=C(OC(=O)CCCC)C(=O)c2ccccc2C1=O [Example 6] | 27 (≈ 82.7 µM)
C=CC(C)(C)C1=C(OC(=O)CCCCC)C(=O)c2ccccc2C1=O [Example 7] | 53 (≈ 156 µM)
C=CC(C)(C)C1=C(OC(=O)C(C)C)C(=O)c2ccccc2C1=O [Example 10] | 15 (≈ 48 µM)
C=CC(C)(C)C1=C(O)C(OC)(OC)c2ccccc2C1=O [Example 14, 1,1-dimethoxy-2-hydroxy-3-(1,1-dimethylprop-2-enyl)-naphthalene-4-one] | ~800 (≈ 2770 µM)
CCCC(C)(C)C1=C(O)C(=O)c2ccccc2C1=O [Example 16] | 91 (≈ 352 µM)
CCCC(C)(C)C1=C(OC(=O)CC)C(=O)c2ccccc2C1=O [Example 17] | 50 (≈ 159 µM)

The compounds below were run on Myzus persicae, susceptible strain (US1L) (assay: Aphid dip test, susceptible strain). Details: read-out: MP % kill 100 ppm.
Format: in vivo
Description: Activity against resistant (R) and susceptible (S) strains of aphid (Myzus persicae) was assessed using the following method.
Entrapment rings of fluon were painted halfway up the inside of 4 cm lengths of glass tubing (1.5 cm diameter), and squares of insect-proof gauze were attached to one end of each tube by elastic bands. Fifteen apterous adults were then gently transferred into the tubes using a sable-hair brush, and the tube sealed with a second gauze square.
Tubes containing aphids were dipped into insecticide solutions for 10 seconds, dried on blotting paper, and then inverted and tapped to cause treated aphids to fall to the unimmersed end of each tube. Handling mortality (usually zero or very slight) was scored after 1 hour, when aphids were transferred onto chinese cabbage leaf-discs (35 mm diameter) on an agar bed (25 mm in depth) in disposible plastic containers (30 mm high) and confined by applying a ring of fluon to the exposed lip of the container. Containers were store upright, without lids, in a constant environment facility maintained at 25°C under continuous room lighting. Mortality was assessed at 24, 48 and 72 hours. Two replicates of 15 aphids each were used at each dose rate and 5 or 6 dose rates were used per compound under test.
The test was carried out using a susceptible strain of aphids (US1L) collected in the field in East Anglia, UK and an extremely resistant strain of aphids (794Jz) (R3 esterase, sensitive AChE) collected from glasshouses in the UK.
The values given are % mortality corrected for control data. The control comprised the test solution without active ingredient.

Structure (SMILES) | mortality at 100 ppm [%]
O=C1C(O)=C(C2(C(F)(F)F)CCCCC2)C(=O)c2ccccc21 [Example 28, 2-hydroxy-3-(1'-trifluoromethylcyclohexyl)-naphthalene-1,4-dione] | 5

What follows are compounds tested on Mustard beetles (PC) (Phaedon cochleariae Fab) (assay: not given). Details: 1 µl acetone drop applied ventrally to adults; kill at 48 hours; NA = lack of detectable activity.
Format: in vivo
Description: A one microlitre drop of an acetone solution of the test compound was applied ventrally to adult mustard beetles using a micro drop applicator. The treated insects were maintained for 48 hours after which time kill was assessed. Two replicates each of 20 to 25 mustard beetles were used at each dose level and 5 dose levels were treated comparably. LD50 values were calculated as for houseflies.

Structure (SMILES) | PC (LD50)
C=CC(C)(C)C1=C(OC(=O)CC)C(=O)c2ccccc2C1=O [Example 4] | 3.9 µg/insect
C=CC(C)(C)C1=C(OC(=O)CCCC)C(=O)c2ccccc2C1=O [Example 6] | 2.1 µg/insect
C=CC(C)(C)C1=C(OC(=O)CCCCC)C(=O)c2ccccc2C1=O [Example 7] | c. 6.0 µg/insect
C=CC(C)(C)C1=C(OC(=O)C(C)C)C(=O)c2ccccc2C1=O [Example 10] | c. 6.0 µg/insect
C=CC(C)(C)C1=C(OC)C(=O)c2ccccc2C1=O [Example 12, 2-(1,1-dimethylprop-2-enyl)-3-methoxy-naphthalene-1,4-dione] | c. 12.0 µg/insect
C=CC(C)(C)C1=C(O)C(OC)(OC)c2ccccc2C1=O [Example 14, 1,1-dimethoxy-2-hydroxy-3-(1,1-dimethylprop-2-enyl)-naphthalene-4-one] | c. 6.0 µg/insect
CCCC(C)(C)C1=C(O)C(=O)c2ccccc2C1=O [Example 16] | c. 10 µg/insect

Same assay, conditions: Tables 10, 13, 14; NA = lack of detectable activity

Structure (SMILES) | PC LD50 (µg/insect)
CCCCC1=C(O)C(=O)c2ccccc2C1=O [-(CH2)3CH3, reference compound] | c5 µg/insect
CCCCCCCCC1=C(O)C(=O)c2ccccc2C1=O [-(CH2)7CH3, reference compound] | 0.78 µg/insect
CCC1(C2=C(O)C(=O)c3ccccc3C2=O)CCCCC1 [Example 26, 2-(1'-ethylcyclohexyl)-3-hydroxy-naphthalene-1,4-dione] | 2.9 µg/insect
C=CC1(C2=C(O)C(=O)c3ccccc3C2=O)CCCCC1 [Example 27, 2-(1'-ethenecyclohexyl)-3-hydroxy-naphthalene-1,4-dione] | 4.7 µg/insect
C=CC1(C2=C(O)C(=O)c3ccccc3C2=O)CCCC1 [Example 30] | <20 µg/insect
CC(C)(C)CC1=C(O)C(=O)c2ccccc2C1=O [Example 35, 2-(2,2-dimethylpropyl)-3-hydroxy-naphthalene-1,4-dione] | 4.6 µg/insect

Same assay, conditions: mustard beetle, in vivo, 2880 min

Structure (SMILES) | PC (LD50)
CC(C)(C)C1CCC(C2=C(O)C(=O)c3ccccc3C2=O)CC1 (stereo not shown) [Compound B, 2-hydroxy-3-(4-t-butylcyclohexyl)-naphthalene-1,4-dione, reference compound] | 0.53

These compounds were tested on Whitefly (BT) (Bemisia tabaci), susceptible strain (SUD-S) (assay: Whitefly residual film vial test, susceptible strain SUD-S). Details: 48 h, Tables 10, 13, 14, susceptible strain, NA = lack of detectable activity, read-out: BT LC50 (ppm/insect).
Format: in vivo
Description: Acetone solutions (0.100 ml) of the test compounds were placed in 10 ml glass vials and evaporated with rotation to deposit a film of the compound. Thirty adult whiteflies were placed inside the vial, then after 60 minutes, the treated insects were transferred onto untreated cotton leaf discs which were kept moist on a bed of agar gel. The temperature was maintained at 25°C and mortality assessed after 48 hours. Three replicates were used at each of 5 to 7 dose levels per compound.

Structure (SMILES) | LC50 [µg/mL]
CCCCC1=C(O)C(=O)c2ccccc2C1=O [-(CH2)3CH3, reference compound] | 13 (≈ 56.5 µM)
CCCCCCCCC1=C(O)C(=O)c2ccccc2C1=O [-(CH2)7CH3, reference compound] | 19 (≈ 66.3 µM)
CCC1(C2=C(O)C(=O)c3ccccc3C2=O)CCCCC1 [Example 26, 2-(1'-ethylcyclohexyl)-3-hydroxy-naphthalene-1,4-dione] | 2.9 (≈ 10.2 µM)
C=CC1(C2=C(O)C(=O)c3ccccc3C2=O)CCCCC1 [Example 27, 2-(1'-ethenecyclohexyl)-3-hydroxy-naphthalene-1,4-dione] | 0.9 (≈ 3.19 µM)
O=C1C(O)=C(C2(C(F)(F)F)CCCCC2)C(=O)c2ccccc21 [Example 28, 2-hydroxy-3-(1'-trifluoromethylcyclohexyl)-naphthalene-1,4-dione] | 24 (≈ 74 µM)
C=CC1(C2=C(O)C(=O)c3ccccc3C2=O)CCCC1 [Example 30] | ~50 (≈ 186 µM)
CC(C)(C)CC1=C(O)C(=O)c2ccccc2C1=O [Example 35, 2-(2,2-dimethylpropyl)-3-hydroxy-naphthalene-1,4-dione] | ~12 (≈ 49.1 µM)

Same assay, conditions: 48 h, text b201, no unit printed there, read-out: BT(SUD-S) LC50

Structure (SMILES) | LC50 [µg/mL]
CC(C)(C)C1CCC(C2=C(O)C(=O)c3ccccc3C2=O)CC1 (stereo not shown) [Compound B, 2-hydroxy-3-(4-t-butylcyclohexyl)-naphthalene-1,4-dione, reference compound] | 18 (≈ 57.6 µM)

Same assay, conditions: ppm solution of test compound, 60 minutes film exposure, mortality after 48 hours, read-out: BT(SUD-S) (LC50)

Structure (SMILES) | LC50 [µg/mL]
C=CC(C)(C)C1=C(OC(=O)CC)C(=O)c2ccccc2C1=O [Example 4] | 5.3 (≈ 17.8 µM)
C=CC(C)(C)C1=C(OC(=O)CCCC)C(=O)c2ccccc2C1=O [Example 6] | 16 (≈ 49 µM)
C=CC(C)(C)C1=C(OC(=O)CCCCC)C(=O)c2ccccc2C1=O [Example 7] | < 100
C=CC(C)(C)C1=C(OC(=O)C(C)C)C(=O)c2ccccc2C1=O [Example 10] | 35 (≈ 112 µM)
CCCC(C)(C)C1=C(O)C(=O)c2ccccc2C1=O [Example 16] | 10 (≈ 38.7 µM)
